# Laboratory results from patent publication US20030049305A1, “Preserved feedstuffs and process for their production” (priority 2001, published 2003).
# Columns and labels:
# E. coli O0157:H7 EDL 933 = assay: Bacterial count in whey powder paste inoculated with E. coli O157:H7, with LAE added; type: cell-based, Escherichia coli O157:H7; conditions: whey powder paste pH 6.1-6.2; for bacterial count after 48 h as % of the value on addition: 800 mg of LAE/kg, 48 h storage at room temperature; for change of bacterial count versus control sample without LAE: LAE 200, 400 and 800 mg/kg, after 24 h, continued with longer storage at room temperature
# Protocol: (§1) The invention is described in more detail by the examples below. In these examples partially desugared whey powder is used, a constituent of many feedstuffs which was set to the pH range of 6.1-6.2 which is favorable for the growth of many bacteria. The whey powder was made into a paste using aqueous buffer solution, so that together with the bacterial suspension in physiological saline a ratio of whey powder to water of approximately 2:1 resulted. LAE was added to the samples at concentrations of 200, 400 and 800 mg/kg, while a control sample received no addition. The bacterial count was determined in a conventional manner in the resultant pastes immediately after their preparation, after 24 h and after 48 h of storage at room temperature.
# Effect on Escherichia coli O157:H7 (approximately 6×10^5/g)
# A paste of whey powder prepared in the manner described was inoculated with approximately 6×10^5/g of E. coli O0157:H7 EDL 933. […] At an addition of 800 mg of LAE/kg, the bacterial count after 48 h was less than 10% of the value on addition.
# Effect on Escherichia coli O157:H7 (approximately 3×1 0^3/g)
# A paste of whey powder prepared in the manner described was inoculated with approximately 3×10^3/g of E. coli O0157:H7 EDL 933. […] At an addition of 800 mg of LAE/kg, the bacterial count after 48 h was less than 10% of the value on addition.
# [1] = test system: L. monocytogenes ATCC 13311; assay: Bacterial count in whey powder paste inoculated with Listeria monocytogenes, with LAE added; type: cell-based; conditions: whey powder paste pH 6.1-6.2; for bacterial count after 48 h as % of the value on addition: 800 mg of LAE/kg, 48 h storage at room temperature; for change of bacterial count versus control sample without LAE: LAE 200, 400 and 800 mg/kg, after 24 h, continued with longer storage at room temperature
# Protocol: as §1
# Effect on Listeria monocytogenes (approximately 5×10^5/g)
# A paste of whey powder prepared in the manner described was inoculated with approximately 5×10^5/g L. monocytogenes ATCC 13311. […] At an addition of 800 mg of LAE/kg, the bacterial count after 48 h was approximately 15% of the value on addition.
# Effect on Listeria monocytogenes (approximately 2×10^3/g)
# A paste of whey powder prepared in the manner described was inoculated with approximately 2×10^3/g L. monocytogenes ATCC 13311. […] At an addition of 800 mg of LAE/kg, the bacterial count after 48 h was less than 20% of the value on addition.
# [2] = test system: S. typhimurium NCTC 10527; assay: Bacterial count in whey powder paste inoculated with Salmonella typhimurium, with LAE added; type: cell-based; conditions: inoculum approximately 3×10^4/g, whey powder paste pH 6.1-6.2
# Protocol: as §1
# Effect on Salmonella typhimurium (approximately 3×10^4/g)
# A paste of whey powder prepared in the manner described was inoculated with approximately 3×10^4/g S. typhimurium NCTC 10527.
# [3] = inoculum approximately 3×10^3/g
# [4] = inoculum approximately 6×10^5/g
# [5] = inoculum approximately 2×10^3/g
# [6] = inoculum approximately 5×10^5/g
compound,measurement,setting,value
"CCCCCCCCCCCC(=O)N[C@@H](CCCNC(=N)N)C(=O)OCC [LAE, lauroylarginine ethyl ester]",bacterial count after 48 h as % of the value on addition,E. coli O0157:H7 EDL 933; [3],less than 10%
same,change of bacterial count versus control sample without LAE,E. coli O0157:H7 EDL 933; [3],much more marked concentration-dependent decrease
same,bacterial count after 48 h as % of the value on addition,E. coli O0157:H7 EDL 933; [4],less than 10%
same,change of bacterial count versus control sample without LAE,E. coli O0157:H7 EDL 933; [4],marked concentration-dependent decrease
same,bacterial count after 48 h as % of the value on addition,[1]; [5],less than 20%
same,change of bacterial count versus control sample without LAE,[1]; [5],more marked concentration-dependent decrease
same,bacterial count after 48 h as % of the value on addition,[1]; [6],approximately 15%
same,change of bacterial count versus control sample without LAE,[1]; [6],more marked concentration-dependent decrease
same,detectability of test bacteria after 48 h,"[2]; 800 mg of LAE/kg, 48 h storage at room temperature",no longer detectable
same,change of bacterial count versus control sample without LAE,"[2]; LAE 200, 400 and 800 mg/kg, after 24 h, continued with longer storage at room temperature",much more marked concentration-dependent decrease
